Some test systems named below: UO-31 renal; MDA-N; LOX IMVI melanoma; OVCAR-8 ovarian; SK-MEL-2 melanoma; SK-MEL-28 melanoma; NCI-H460 lung; KM12 colon; NCI-H522 lung; DU-145 prostate; HCT-116 colon; OVCAR-5 ovarian; M14 melanoma; SW-620 colon; TK-10 renal; 786-0 renal; A498 renal; OVCAR-4 ovarian; RXF 393 renal; SR leukemia.
What all share (assay): NCI anticancer screen, dose series, 48 h

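Dose response: 5 concentrations. Exposure: 48 h. Format: 96-well plates. Endpoint: linear interpolation; highest concentration if not reached. TGI denotes the concentration required for complete inhibition of growth.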 Where only a bound is given, the exact number is not on record here.

With `CN(Cc1cnc2nc(N)nc(N)c2n1)c1ccc(C(=O)NCS(=O)(=O)O)cc1`, the TGI in the experiment with UO-31 renal, with MDA-N, with LOX IMVI melanoma, in the experiment with OVCAR-8 ovarian, in the experiment on SK-MEL-2 melanoma and with SK-MEL-28 melanoma was above 100 µM in each case. The TGI in the experiment on NCI-H460 lung is above 100 µM; in the experiment with KM12 colon it was above 100 µM; in the experiment with NCI-H522 lung, above 100 µM; in the experiment on DU-145 prostate, 82.7 µM; with HCT-116 colon it was above 100 µM; in the experiment with OVCAR-5 ovarian, above 100 µM. For the same compound, the TGI with M14 melanoma, with SW-620 colon, in the experiment on TK-10 renal, in the experiment on 786-0 renal, in the experiment with A498 renal and with OVCAR-4 ovarian was above 100 µM in each case.

With `O=C1C(C(c2ccccc2)N2CCOCC2)=C(O)C(c2ccccc2)N1c1ccccc1` (configuration not stated), the TGI in the experiment with UO-31 renal, in the experiment with MDA-N, in the experiment with LOX IMVI melanoma, with OVCAR-8 ovarian, in the experiment on SK-MEL-2 melanoma and with SK-MEL-28 melanoma was above 10 µM throughout. Besides, the TGI in the experiment on NCI-H460 lung, with KM12 colon, in the experiment on NCI-H522 lung, with DU-145 prostate, in the experiment with HCT-116 colon and with RXF 393 renal was above 10 µM each time. The TGI in the experiment on OVCAR-5 ovarian, in the experiment with M14 melanoma, in the experiment with SW-620 colon, in the experiment on TK-10 renal, with 786-0 renal and with A498 renal was above 10 µM each time.

Consider `Cc1n[nH]c(=O)n1/N=C/c1cccs1`, for which the TGI with UO-31 renal, with MDA-N, with LOX IMVI melanoma, with OVCAR-8 ovarian, in the experiment on SK-MEL-2 melanoma and with SK-MEL-28 melanoma was above 100 µM throughout. The TGI in the experiment on NCI-H460 lung, with KM12 colon, in the experiment with DU-145 prostate, in the experiment with HCT-116 colon, in the experiment on RXF 393 renal and with OVCAR-5 ovarian was above 100 µM in each case. The TGI in the experiment with M14 melanoma, in the experiment on SW-620 colon, with 786-0 renal, in the experiment with A498 renal and in the experiment on OVCAR-4 ovarian was above 100 µM each time.

`Nc1ccc(N=Nc2ccc(-c3ccc(O)cc3)cc2)c2ccc(S(=O)(=O)O)cc12`: the TGI in the experiment on UO-31 renal, in the experiment with LOX IMVI melanoma, with OVCAR-8 ovarian, in the experiment with SK-MEL-2 melanoma, with SK-MEL-28 melanoma and in the experiment on NCI-H460 lung was above 100 µM each time. Also, the TGI with KM12 colon, in the experiment on NCI-H522 lung, with DU-145 prostate, in the experiment on HCT-116 colon, in the experiment with RXF 393 renal and in the experiment on OVCAR-5 ovarian was above 100 µM each time. Moreover, the TGI with SR leukemia, with M14 melanoma, in the experiment with SW-620 colon, with TK-10 renal, in the experiment with 786-0 renal and in the experiment on A498 renal was above 100 µM each time. In the experiment on OVCAR-4 ovarian, this compound returned a TGI above 100 µM.

As to `O=P1(c2ccccc2)c2ccccc2CCc2ccccc21`, the TGI in the experiment with UO-31 renal, with MDA-N, in the experiment on LOX IMVI melanoma, in the experiment with OVCAR-8 ovarian, in the experiment with SK-MEL-2 melanoma and with SK-MEL-28 melanoma was above 100 µM in each case. Further, the TGI with KM12 colon, in the experiment on NCI-H522 lung, in the experiment on DU-145 prostate, with HCT-116 colon, in the experiment on RXF 393 renal and in the experiment on M14 melanoma was above 100 µM throughout. Moreover, the TGI in the experiment with SW-620 colon, with TK-10 renal and in the experiment on 786-0 renal was above 100 µM throughout.

In the case of `CC(=O)Nc1sc([N+](=O)[O-])cc1S(=O)(=O)c1ccc(Cl)cc1`, the TGI with UO-31 renal was 14.7 µM; with MDA-N it was above 100 µM; in the experiment with LOX IMVI melanoma, above 100 µM; in the experiment with OVCAR-8 ovarian it was above 100 µM; in the experiment with SK-MEL-2 melanoma, 8.54 µM; in the experiment on SK-MEL-28 melanoma, above 100 µM. The TGI in the experiment on NCI-H460 lung was 10.2 µM; with KM12 colon it was 14.5 µM; in the experiment with NCI-H522 lung, 11 µM; with DU-145 prostate it was above 40.8 µM; in the experiment with HCT-116 colon, 19.8 µM; in the experiment with RXF 393 renal it was 13.5 µM. Moreover, the TGI is above 100 µM with OVCAR-5 ovarian; 9.79 µM in the experiment on M14 melanoma; above 100 µM in the experiment with SW-620 colon; above 100 µM in the experiment with TK-10 renal; above 100 µM with 786-0 renal; above 27.9 µM in the experiment with A498 renal. The compound further displayed a TGI with OVCAR-4 ovarian above 100 µM.

Regarding `CO/N=C(/C(=O)N(C(=O)/C(=N/OC)c1csc(NC(c2ccccc2)(c2ccccc2)c2ccccc2)n1)n1cnn(CC(=O)OC(C)(C)C)c1=O)c1csc(NC(c2ccccc2)(c2ccccc2)c2ccccc2)n1`, the TGI with UO-31 renal is above 10 µM; in the experiment with MDA-N, above 10 µM; with LOX IMVI melanoma, above 10 µM; in the experiment on OVCAR-8 ovarian, above 10 µM; with SK-MEL-2 melanoma it was 3.92 µM; with SK-MEL-28 melanoma it was above 10 µM. Moreover, the TGI in the experiment on NCI-H460 lung, with KM12 colon, in the experiment with NCI-H522 lung, in the experiment on DU-145 prostate, in the experiment with HCT-116 colon and in the experiment on RXF 393 renal was above 10 µM in each case. Further, the TGI in the experiment on OVCAR-5 ovarian, in the experiment on M14 melanoma, in the experiment on SW-620 colon, with TK-10 renal, in the experiment on 786-0 renal and in the experiment on A498 renal was above 10 µM throughout. Further, in the experiment on OVCAR-4 ovarian, the TGI was above 10 µM.

In the case of `O=C(c1ccc2ccccc2c1)N(Cc1cccnc1)C(=S)N(Cc1cccnc1)C(=O)c1ccc2ccccc2c1`, the TGI in the experiment with UO-31 renal is 97.8 µM; with LOX IMVI melanoma, 37 µM; with OVCAR-8 ovarian, 66.5 µM; with SK-MEL-2 melanoma, 75.7 µM; with SK-MEL-28 melanoma, above 100 µM; in the experiment on NCI-H460 lung, 95.7 µM. Further, the TGI was 40 µM in the experiment on KM12 colon; above 100 µM with NCI-H522 lung; 69.5 µM with DU-145 prostate; above 100 µM in the experiment with HCT-116 colon; 43.9 µM in the experiment on RXF 393 renal; above 100 µM in the experiment on OVCAR-5 ovarian. The TGI is above 100 µM with SR leukemia; 55 µM in the experiment with M14 melanoma; above 100 µM with SW-620 colon; 78.9 µM in the experiment on TK-10 renal; 73.4 µM with 786-0 renal; above 100 µM in the experiment on A498 renal. Besides, the TGI in the experiment with OVCAR-4 ovarian amounted to 45.3 µM.

Turning to `CCN(CC)CCCNc1nc(=O)[nH]c(C)c1C(=O)Nc1c2ccccc2nc2ccccc12`, the TGI was 32.3 µM in the experiment with UO-31 renal; 23.7 µM with MDA-N; 45.4 µM in the experiment with LOX IMVI melanoma; 59.1 µM in the experiment with OVCAR-8 ovarian; above 100 µM in the experiment on SK-MEL-2 melanoma; above 100 µM with SK-MEL-28 melanoma. The TGI is 26.5 µM in the experiment on KM12 colon; 21.3 µM with NCI-H522 lung; above 100 µM in the experiment with DU-145 prostate; 21.7 µM with HCT-116 colon; 97 µM in the experiment on RXF 393 renal; above 100 µM in the experiment on OVCAR-5 ovarian. For the same compound, the TGI is above 100 µM in the experiment on M14 melanoma; above 100 µM in the experiment on SW-620 colon; above 100 µM in the experiment on TK-10 renal; 32.6 µM in the experiment on 786-0 renal; 31.8 µM with A498 renal; 86.3 µM in the experiment with OVCAR-4 ovarian.

As to `O=C1c2ccccc2-c2c1c(-c1ccc([N+](=O)[O-])cc1)nc1ccc3ccccc3c21`, the TGI in the experiment on UO-31 renal, in the experiment on MDA-N, with OVCAR-8 ovarian, in the experiment on SK-MEL-2 melanoma, in the experiment on SK-MEL-28 melanoma and with NCI-H460 lung was above 100 µM throughout. Further, the TGI in the experiment with KM12 colon, in the experiment with DU-145 prostate, in the experiment on HCT-116 colon, in the experiment with OVCAR-5 ovarian, with M14 melanoma and with SW-620 colon was above 100 µM each time. The TGI with 786-0 renal, with A498 renal and in the experiment with OVCAR-4 ovarian was above 100 µM each time.

For the compound `CC(=O)OC(C)c1cc2c(s1)C(=O)c1scc(C(C)OC(C)=O)c1C2=O` (configuration not stated), the TGI is 0.451 µM in the experiment on UO-31 renal; 0.256 µM in the experiment with MDA-N; above 100 µM in the experiment with LOX IMVI melanoma; 0.546 µM in the experiment with OVCAR-8 ovarian; 0.378 µM with SK-MEL-28 melanoma; 0.344 µM in the experiment on NCI-H460 lung. In addition, the TGI in the experiment with KM12 colon stood at 0.359 µM; in the experiment with NCI-H522 lung, 0.571 µM; with DU-145 prostate, 0.317 µM; in the experiment on HCT-116 colon it was 0.838 µM; with RXF 393 renal, 1.31 µM; in the experiment on OVCAR-5 ovarian it was 2.74 µM. The TGI in the experiment on M14 melanoma turned out to be 0.238 µM; with TK-10 renal, 1.83 µM; with 786-0 renal, 0.461 µM; in the experiment on A498 renal it was 1.26 µM; in the experiment with OVCAR-4 ovarian, 0.583 µM.

In the case of `COc1ccc(/C=C2\N=C3Sc4c(nc[nH]c4=O)N3C2=O)cc1`, the TGI in the experiment on UO-31 renal, in the experiment on MDA-N, in the experiment on LOX IMVI melanoma, with OVCAR-8 ovarian, in the experiment with SK-MEL-2 melanoma and with SK-MEL-28 melanoma was above 100 µM each time. Besides, the TGI in the experiment on KM12 colon, in the experiment with NCI-H522 lung, in the experiment on DU-145 prostate, in the experiment on HCT-116 colon, with RXF 393 renal and in the experiment on OVCAR-5 ovarian was above 100 µM in each case. For the same compound, the TGI with M14 melanoma, in the experiment with SW-620 colon, in the experiment with TK-10 renal, with 786-0 renal, in the experiment on A498 renal and in the experiment with OVCAR-4 ovarian was above 100 µM in each case.

The values are drawn from PubChem BioAssay (NCI).
